From patent US9346820B2, “HIV-1 protease inhibitors having gem-di-fluoro bicyclic P2-ligands” (priority 2013, dated 2016) come the findings set out here.

The test system of assay [1] is HIV-1ERS104pre. Put plainly: p24 Gag production inhibition in PHA-PBMs, wild-type clinical isolate. It counts as cell-based. How it is done: All primary HIV-1 strains were passaged once or twice in 3-day-old phytohemagglutinin activated peripheral blood mononuclear cells (PHA-PBM), and the culture supernatants were stored at −80° C. until use.
The susceptibility of HIV-1LAI to various drugs was determined as previously described with minor modifications. Briefly, MT-2 cells (10^4/ml) were exposed to 100 50% tissue culture infectious doses (TCID50) of HIV-1LAI in the presence or absence of various concentrations of drugs in 96-well microculture plates and were incubated at 37° C. for 7 days. After 100 μl of the medium was removed from each well, 3-(4,5-dimetylthiazol-2-yl)-2,5-diphenyltetrazolium bromide (MTT) solution (10 μl, 7.5 mg/ml in phosphate-buffered saline) was added to each well in the plate, followed by incubation at 37° C. for 2 h. […] All assays were performed in duplicate or triplicate. […] To determine the sensitivity of primary HIV-1 isolates to drugs, phytohemagglutinin-stimulated peripheral blood mononuclear cells (PHA-PBMC) (10^6/ml) were exposed to 50 TCID50 of each primary HIV-1 isolate and cultured in the presence or absence of various concentrations of drugs in 10-fold serial dilutions in 96-well microculture plates. In determining the drug susceptibility of certain laboratory HIV-1 strains, MT-4 cells were employed as target cells as previously described with minor modifications. In brief, MT-4 cells (10^5/ml) were exposed to 100 TCID50 of drug-resistant HIV-1 strains in the presence or absence of various concentrations of drugs and were incubated at 37° C. On day 7 of culture, the supernatants were harvested and the amounts of p24 Gag protein were determined by using a fully automated chemiluminescent enzyme immunoassay system (Lumipulse F: Fujirebio Inc., Tokyo). […] All assays were performed in duplicate or triplicate. PHA-PBMs were derived from a single donor in each independent experiment. Thus, for obtaining the data, three different donors were recruited.

Assay [2] deals with multi-drug-resistant clinical HIV-1 variants. The assay can be described thus: p24 assay in PHA-PBMs, the six multi-drug-resistant clinical variants taken together. It counts as cell-based. The note with it: Human immunodeficiency virus 1, read-out: EC50 values against clinical multi-drug-resistant variants. How it is done: The susceptibility of HIV-1LAI to various drugs was determined as previously described with minor modifications. Briefly, MT-2 cells (10^4/ml) were exposed to 100 50% tissue culture infectious doses (TCID50) of HIV-1LAI in the presence or absence of various concentrations of drugs in 96-well microculture plates and were incubated at 37° C. for 7 days. After 100 μl of the medium was removed from each well, 3-(4,5-dimetylthiazol-2-yl)-2,5-diphenyltetrazolium bromide (MTT) solution (10 μl, 7.5 mg/ml in phosphate-buffered saline) was added to each well in the plate, followed by incubation at 37° C. for 2 h. […] All assays were performed in duplicate or triplicate. […] To determine the sensitivity of primary HIV-1 isolates to drugs, phytohemagglutinin-stimulated peripheral blood mononuclear cells (PHA-PBMC) (10^6/ml) were exposed to 50 TCID50 of each primary HIV-1 isolate and cultured in the presence or absence of various concentrations of drugs in 10-fold serial dilutions in 96-well microculture plates. In determining the drug susceptibility of certain laboratory HIV-1 strains, MT-4 cells were employed as target cells as previously described with minor modifications. […] On day 7 of culture, the supernatants were harvested and the amounts of p24 Gag protein were determined by using a fully automated chemiluminescent enzyme immunoassay system (Lumipulse F: Fujirebio Inc., Tokyo). […]

Assay [3] relates to HIV-1ERS104pre. The assay can be described thus: Antiviral activity of brain-side medium from the BBB assay, p24 assay in PHA-PBMs. Type of assay: cell-based. To be noted: PHA-activated PBMCs. How it is done: The “brain-side” of the medium containing a compound collected in the BBB in vitro assay, was subjected to antiviral assays. Two HIV-1 isolates were employed, HIV-1LAI (Panel A) and HIV-1ERS104pre (Panel B). […] Dilution ranges were between 10-fold and 10,000-fold, and the percentage of viral inhibition was used as an endpoint. […] Assays were conducted in duplicate and error bars show standard deviations.
The assay was carried out using 10, 100, 1000 and 10000 times-diluted brain-side stocks of compounds.

The test system of assay [4] is variants selected with DRV over 10 and 20 passages. Put plainly: Antiviral activity against DRV-resistant variants selected over 10 and 20 passages. The note with it: Human immunodeficiency virus 1, read-out: EC50 against variants selected with DRV over 10 and 20 passages. Type of assay: cell-based, HIV-1.
A further assay relates to HIV-1NL4-3. Put plainly: In vitro selection of PI-resistant HIV-1 variants in MT-4 cells with sequencing of the protease-encoding region. Type of assay: cell-based. The text has this: MT-4 cells ([…]) were exposed to HIV-1NL4-3 (500 TCID50) and cultured in the presence of various PIs at an initial concentration of its EC50 value. Viral replication was monitored by the determination of the amount of p24 Gag produced by MT-4 cells. The culture supernatants were harvested on day 7 and used to infect fresh MT-4 cells for the next round of culture in the presence of increasing concentrations of each drug. When the virus began to propagate in the presence of the drug, the drug concentration was increased generally 2- to 3-fold. Proviral DNA samples obtained from the lysates of infected cells were subjected to nucleotide sequencing. This drug selection procedure was carried out until the drug concentration reached 5 μM (31-33). In the experiments for selecting drug-resistant variants, MT-4 cells were exploited as target cells since HIV-1 in general replicates at greater levels in MT-4 cells than in MT-2 cells.
Molecular cloning and determination of the nucleotide sequences of HIV-1 strains passaged in the presence of anti-HIV-1 agents were performed as described previously (31). In brief, high molecular-weight DNA was extracted from HIV-1-infected MT-4 cells by using the InstaGene Matrix (Bio-Rad Laboratories, Hercules, Calif.) and was subjected to molecular cloning, followed by sequence determination. The primers used for the first round of PCR with the entire Gag- and protease-encoding regions of the HIV-1 genome were LTR F1 (5′-GATGCTACATATAAGCAGCTGC-3′; SEQ ID NO: 13) and PR12 (5′-CTCGTGACAAATTTCTACTAATGC-3′; SEQ ID NO: 14). The first-round PCR mixture consisted of 1 μl of proviral DNA solution, 10 μl of Premix Taq (Ex Taq Version; Takara Bio Inc., Otsu, Japan), and 10 pmol of each of the first PCR primers in a total volume of 20 μl. The PCR conditions used were an initial 3 min at 95° C., followed by 35 cycles of 40 sec at 95° C., 20 sec at 55° C., and 2 min at 72° C., with a final 10 min of extension at 72° C. The first-round PCR products (1 μl) were used directly in the second round of PCR with primers LTR F2 (5′-GAGACTCTGGTAACTAGAGATC-3′; SEQ ID NO: 15) and Ksma2.1 (5′-CCATCCCGGGCTTTAATTTTACTGGTAC-3′; SEQ ID NO: 16) under the PCR conditions of an initial 3 min at 95° C., followed by 35 cycles of 30 sec at 95° C., 20 sec at 55° C., and 2 min at 72° C., with a final 10 min of extension at 72° C. The second-round PCR products were purified with spin columns (MicroSpin S-400 HR columns; Amersham Biosciences Corp., Piscataway, N.J.), cloned directly, and subjected to sequencing with a model 3130 automated DNA sequencer (Applied Biosystems, Foster City, Calif.).

Setting [5] is: Human immunodeficiency virus 1, read-out: EC50 HIV-1ERS104pre (X4).
Setting [6] is: Human immunodeficiency virus 1, PHA-PBMs, p24 Gag endpoint, read-out: EC50 HIV-1ERS104pre (X4).

Where two headings read alike, the source gives them in different places.

The term EC50 denotes the concentration giving half of the maximal effect. For the compound `COC(=O)N[C@H](C(=O)N[C@@H](Cc1ccccc1)[C@@H](O)CN(Cc1ccc(-c2ccccn2)cc1)NC(=O)[C@@H](NC(=O)OC)C(C)(C)C)C(C)(C)C` [ATV, Atazanavir], the EC50 with HIV-1ERS104pre [1] (setting [5]) came out at 2.1 nM.
Consider `COc1ccc(S(=O)(=O)N(CC(C)C)C[C@@H](O)[C@H](Cc2ccccc2)NC(=O)OC2CO[C@H]3OCC(F)(F)[C@@H]23)cc1` (stereo partly drawn) [GRL-04810], for which the EC50 in assay [2] was 2 to 21 nM; in assay [4] it was 30 to 34 nM; in the assay on HIV-1ERS104pre [1] (setting [6]), 2.3 nM. In the assay on HIV-1ERS104pre [3], the “antiviral profile of brain-side preparations (FIG. 5B)” value is reported as “virtually the same antiviral profiles”. For the same compound, the “concentration in the presence of which HIV-1NL4-3 had acquired an ability to replicate” value in the assay with HIV-1NL4-3 (25 passages, initial concentration 0.003 μM, MT-4 cells) is 0.080 µM. For the same compound, the “fold-increased concentration tolerated by selected virus” value in the assay with HIV-1NL4-3 (25 passages, relative to initial concentration 0.003 μM) worked out at 26 fold.
`CC(C)(C)NC(=O)[C@@H]1C[C@@H]2CCCC[C@@H]2CN1C[C@@H](O)[C@H](Cc1ccccc1)NC(=O)[C@H](CC(N)=O)NC(=O)c1ccc2ccccc2n1` [SQV, Saquinavir]: the EC50 with HIV-1ERS104pre [1] (setting [5]) stood at 3.9 nM.
On the same count and under the same terms, for `CC(C)CN(C[C@@H](O)[C@H](Cc1ccccc1)NC(=O)O[C@H]1CO[C@H]2OCC[C@H]21)S(=O)(=O)c1ccc(N)cc1` [DRV, darunavir] the value was 4 nM.
Consider `CC(C)CN(C[C@@H](O)[C@H](Cc1ccccc1)NC(=O)O[C@H]1CO[C@H]2OCC(F)(F)[C@H]21)S(=O)(=O)c1ccc(N)cc1` [GRL-05010], for which the 50% effective concentration (EC50) in assay [2] is 2 to 21 nM; in assay [4] it was 26 to 43 nM; in the assay with HIV-1ERS104pre [1] (setting [6]) it was 2.7 nM. For the same compound, the “antiviral profile of brain-side preparations (FIG. 5B)” value with HIV-1ERS104pre [3] is reported as “virtually the same antiviral profiles”. Besides, the “amino acid substitutions in the protease-encoding region of selected HIV-1NL4-3” value in the assay on HIV-1NL4-3 (by passage 15) is “M46I and I50V by passage 15 in all 24 clones examined, while N38K was detected in 8 of 24 clones and M36I in 3 clones”. Also, in the assay with HIV-1NL4-3 (by passage 15, starting at 0.003 μM, MT-4 cells), the “concentration in the presence of which HIV-1NL4-3 attained an ability to replicate” value came out at 0.037 µM.
